Data as given in PubChem BioAssay (NCI).
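The compound was tested at five concentrations on cells cultured in 96-well plates, with a 48-hour exposure period. TGI denotes the concentration required for complete inhibition of growth.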 Calls of active or inactive are those of the source. Rule as the data show it: active = GI50 below about 0.43 µM; inactive = the rest.

How the values were obtained:
Experiment in all cases: inhibition of tumour cell growth, NCI panel, 48 h
DU-145 prostate = tested on: DU-145 prostate
SK-MEL-2 melanoma = tested on: SK-MEL-2 melanoma
HT29 colon = tested on: HT29 colon
SR leukemia = tested on: SR leukemia
LOX IMVI melanoma = tested on: LOX IMVI melanoma
OVCAR-4 ovarian = tested on: OVCAR-4 ovarian
HL-60(TB) leukemia = tested on: HL-60(TB) leukemia
MOLT-4 leukemia = tested on: MOLT-4 leukemia
ACHN renal = tested on: ACHN renal
SF-539 CNS = tested on: SF-539 CNS
SK-MEL-28 melanoma = tested on: SK-MEL-28 melanoma
OVCAR-8 ovarian = tested on: OVCAR-8 ovarian
UACC-62 melanoma = tested on: UACC-62 melanoma
A498 renal = tested on: A498 renal
MALME-3M melanoma = tested on: MALME-3M melanoma
UO-31 renal = tested on: UO-31 renal
EKVX NSCLC = tested on: EKVX NSCLC
HCT-116 colon = tested on: HCT-116 colon
RPMI-8226 leukemia = tested on: RPMI-8226 leukemia
SN12C renal = tested on: SN12C renal
RXF 393 renal = tested on: RXF 393 renal
SF-268 CNS = tested on: SF-268 CNS
NCI-H522 lung = tested on: NCI-H522 lung
SNB-75 CNS = tested on: SNB-75 CNS
CCRF-CEM leukemia = tested on: CCRF-CEM leukemia
HOP-62 NSCLC = tested on: HOP-62 NSCLC
SK-MEL-5 melanoma = tested on: SK-MEL-5 melanoma
K-562 leukemia = tested on: K-562 leukemia
MDA-MB-435 = tested on: MDA-MB-435
OVCAR-3 ovarian = tested on: OVCAR-3 ovarian
NCI-H460 lung = tested on: NCI-H460 lung
MDA-MB-231 breast = tested on: MDA-MB-231 breast
COLO 205 colon = tested on: COLO 205 colon
T-47D breast = tested on: T-47D breast
HCC-2998 colon = tested on: HCC-2998 colon
HCT-15 colon = tested on: HCT-15 colon
OVCAR-5 ovarian = tested on: OVCAR-5 ovarian
NCI-H226 lung = tested on: NCI-H226 lung
786-0 renal = tested on: 786-0 renal
U251 CNS = tested on: U251 CNS
SW-620 colon = tested on: SW-620 colon
SNB-19 CNS = tested on: SNB-19 CNS
CAKI-1 renal = tested on: CAKI-1 renal
A549 NSCLC = tested on: A549 NSCLC
HS 578T breast = tested on: HS 578T breast
BT-549 breast = tested on: BT-549 breast
SF-295 CNS = tested on: SF-295 CNS
M14 melanoma = tested on: M14 melanoma
MDA-N = tested on: MDA-N
SK-OV-3 ovarian = tested on: SK-OV-3 ovarian
KM12 colon = tested on: KM12 colon
PC-3 prostate = tested on: PC-3 prostate
NCI-H23 lung = tested on: NCI-H23 lung
UACC-257 melanoma = tested on: UACC-257 melanoma
MCF7 breast = tested on: MCF7 breast
TK-10 renal = tested on: TK-10 renal

N#CC[C@@H](O)COc1ccccc1
TGI (DU-145 prostate): > 100 µM | TGI (SK-MEL-2 melanoma): > 100 µM | TGI (HT29 colon): > 100 µM | TGI (SR leukemia): > 100 µM | TGI (LOX IMVI melanoma): > 100 µM | TGI (OVCAR-4 ovarian): > 100 µM | TGI (HL-60(TB) leukemia): > 100 µM | TGI (MOLT-4 leukemia): > 100 µM | TGI (ACHN renal): > 100 µM | TGI (SF-539 CNS): > 100 µM | TGI (SK-MEL-28 melanoma): > 100 µM | TGI (OVCAR-8 ovarian): > 100 µM | TGI (UACC-62 melanoma): > 100 µM | TGI (A498 renal): > 100 µM | TGI (MALME-3M melanoma): > 100 µM | TGI (UO-31 renal): > 100 µM | TGI (EKVX NSCLC): > 100 µM | TGI (HCT-116 colon): > 100 µM | TGI (RPMI-8226 leukemia): > 100 µM | TGI (SN12C renal): > 100 µM | TGI (RXF 393 renal): > 100 µM | TGI (SF-268 CNS): > 100 µM | TGI (NCI-H522 lung): > 100 µM | TGI (SNB-75 CNS): > 100 µM | TGI (CCRF-CEM leukemia): > 100 µM | TGI (HOP-62 NSCLC): > 100 µM | TGI (SK-MEL-5 melanoma): > 100 µM | TGI (K-562 leukemia): > 100 µM | TGI (MDA-MB-435): > 100 µM | TGI (OVCAR-3 ovarian): > 100 µM | TGI (NCI-H460 lung): > 100 µM | TGI (MDA-MB-231 breast): > 100 µM | TGI (COLO 205 colon): > 100 µM | TGI (T-47D breast): > 100 µM | TGI (HCC-2998 colon): > 100 µM | TGI (HCT-15 colon): > 100 µM | TGI (OVCAR-5 ovarian): > 100 µM | TGI (NCI-H226 lung): > 100 µM | TGI (786-0 renal): > 100 µM | TGI (U251 CNS): > 100 µM | TGI (SW-620 colon): > 100 µM | TGI (SNB-19 CNS): > 100 µM | TGI (CAKI-1 renal): > 100 µM | TGI (A549 NSCLC): > 100 µM | TGI (HS 578T breast): > 100 µM | TGI (BT-549 breast): > 100 µM | TGI (SF-295 CNS): > 100 µM | TGI (M14 melanoma): > 100 µM | TGI (MDA-N): > 100 µM | TGI (SK-OV-3 ovarian): > 100 µM | TGI (KM12 colon): > 100 µM | TGI (PC-3 prostate): > 100 µM | TGI (NCI-H23 lung): > 100 µM | TGI (UACC-257 melanoma): > 100 µM | TGI (MCF7 breast): > 100 µM | TGI (TK-10 renal): > 100 µM

C[C@H](N)C(O)C/C=C\CC(O)/C=C/C=C\C/C=C\C/C=C\C/C=C\CCCCCCC(O)[C@H](C)N (stereo not given in full)
outcome (DU-145 prostate): inactive | outcome (SK-MEL-2 melanoma): inactive | outcome (HT29 colon): inactive | outcome (SR leukemia): inactive | outcome (LOX IMVI melanoma): inactive | outcome (OVCAR-4 ovarian): inactive | outcome (HL-60(TB) leukemia): inactive | outcome (MOLT-4 leukemia): inactive | outcome (ACHN renal): inactive | outcome (SF-539 CNS): inactive | outcome (SK-MEL-28 melanoma): inactive | outcome (OVCAR-8 ovarian): inactive | outcome (UACC-62 melanoma): inactive | outcome (A498 renal): inactive | outcome (MALME-3M melanoma): inactive | outcome (UO-31 renal): inactive | outcome (EKVX NSCLC): inactive | outcome (HCT-116 colon): inactive | outcome (RPMI-8226 leukemia): inactive | outcome (SN12C renal): inactive | outcome (RXF 393 renal): inactive | outcome (SF-268 CNS): inactive | outcome (NCI-H522 lung): inactive | outcome (SNB-75 CNS): inactive | outcome (CCRF-CEM leukemia): inactive | outcome (HOP-62 NSCLC): inactive | outcome (K-562 leukemia): inactive | outcome (MDA-MB-435): inactive | outcome (OVCAR-3 ovarian): inactive | outcome (NCI-H460 lung): inactive | outcome (MDA-MB-231 breast): inactive | outcome (COLO 205 colon): inactive | outcome (T-47D breast): inactive | outcome (HCC-2998 colon): inactive | outcome (HCT-15 colon): inactive | outcome (OVCAR-5 ovarian): inactive | outcome (NCI-H226 lung): inactive | outcome (786-0 renal): inactive | outcome (U251 CNS): inactive | outcome (SW-620 colon): inactive | outcome (SNB-19 CNS): inactive | outcome (CAKI-1 renal): inactive | outcome (HS 578T breast): inactive | outcome (BT-549 breast): inactive | outcome (SF-295 CNS): inactive | outcome (M14 melanoma): inactive | outcome (MDA-N): inactive | outcome (SK-OV-3 ovarian): inactive | outcome (KM12 colon): inactive | outcome (PC-3 prostate): inactive | outcome (NCI-H23 lung): inactive | outcome (UACC-257 melanoma): inactive | outcome (MCF7 breast): inactive | outcome (TK-10 renal): inactive
